Reference: ChEMBL document CHEMBL1201862, “PubChem BioAssay data set” (2004)
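Assay format: 96-well plates, 48-hour exposure. Abbreviation: GI50, concentration required for 50% inhibition of growth.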 Calls of active or inactive are those of the source. No stated cut-off is given here; in the data, active = GI50 up to about 1.1 µM and inactive = higher.

What was measured:
Test in all cases: DTP human tumour cell line panel, 48 h
SR = system: SR
SF-268 = system: SF-268
CCRF-CEM = system: CCRF-CEM
SK-MEL-5 = system: SK-MEL-5
SNB-19 = system: SNB-19
A498 = system: A498
HL-60 = system: HL-60
HOP-62 = system: HOP-62
MDA-MB-435 = system: MDA-MB-435
CAKI-1 = system: CAKI-1
Malme-3M = system: Malme-3M
BT-549 = system: BT-549
A549 = system: A549
IGROV-1 = system: IGROV-1
TK-10 = system: TK-10
SK-MEL-28 = system: SK-MEL-28
SN12C = system: SN12C
T47D = system: T47D
SK-MEL-2 = system: SK-MEL-2

Measured: GI50

Cc1c(N=C(S)Nc2ccc(Cl)cc2)c(=O)n(-c2ccccc2)n1C
inactive: SR > 100 µM | SF-268 > 100 µM | CCRF-CEM > 100 µM | SK-MEL-5 > 100 µM | SNB-19 > 100 µM | A498 > 100 µM | HL-60 > 100 µM | HOP-62 > 100 µM | MDA-MB-435 > 100 µM | CAKI-1 > 100 µM | Malme-3M > 100 µM | BT-549 > 100 µM | A549 > 100 µM | IGROV-1 > 100 µM | TK-10 > 100 µM | SK-MEL-28 > 100 µM

CSc1cc(-c2cccs2)sc1-c1cc(SC)c(-c2sc(-c3sc(-c4cccs4)cc3SC)cc2SC)s1
inactive: SN12C > 100 µM | SF-268 > 100 µM | CCRF-CEM > 100 µM | T47D > 100 µM | SK-MEL-5 > 100 µM | SNB-19 > 100 µM | A498 > 100 µM | HL-60 > 100 µM | HOP-62 > 100 µM | SK-MEL-2 > 100 µM | MDA-MB-435 > 100 µM | CAKI-1 > 100 µM | Malme-3M > 100 µM | BT-549 > 100 µM | A549 > 100 µM | IGROV-1 > 100 µM | TK-10 > 100 µM | SK-MEL-28 > 100 µM

COc1ccc(NC(=O)/C(=N\NC(=O)C[n+]2ccccc2)c2c(O)c3ccc(O)cc3oc2=O)c([N+](=O)[O-])c1
inactive: SN12C > 100 µM | SF-268 > 100 µM | CCRF-CEM > 100 µM | T47D > 100 µM | SK-MEL-5 > 100 µM | SNB-19 > 100 µM | A498 75.7 µM | HL-60 > 100 µM | SK-MEL-2 > 100 µM | MDA-MB-435 > 100 µM | CAKI-1 > 100 µM | Malme-3M > 100 µM | BT-549 > 100 µM | A549 > 100 µM | IGROV-1 > 100 µM | TK-10 > 100 µM | SK-MEL-28 > 100 µM

C1CSCCCSCCCSCCCSCCCSCCCSCCCSCCCSC1
inactive: SN12C > 100 µM | SF-268 > 100 µM | CCRF-CEM > 100 µM | T47D > 100 µM | SK-MEL-5 85.9 µM | SNB-19 > 100 µM | A498 > 100 µM | HL-60 > 100 µM | HOP-62 > 100 µM | SK-MEL-2 > 100 µM | MDA-MB-435 > 100 µM | CAKI-1 > 100 µM | Malme-3M > 100 µM | BT-549 > 100 µM | A549 > 100 µM | IGROV-1 > 100 µM | TK-10 > 100 µM | SK-MEL-28 > 100 µM

CCc1ccc2oc(=O)ccc2c1
inactive: SN12C > 100 µM | SR > 100 µM | SF-268 > 100 µM | CCRF-CEM > 100 µM | SK-MEL-5 > 100 µM | SNB-19 > 100 µM | A498 > 100 µM | HL-60 42.5 µM | HOP-62 > 100 µM | SK-MEL-2 > 100 µM | MDA-MB-435 > 100 µM | CAKI-1 > 100 µM | Malme-3M > 100 µM | BT-549 > 100 µM | A549 > 100 µM | IGROV-1 > 100 µM | SK-MEL-28 > 100 µM

CCOC(=O)c1c[nH]cc1-c1cn(S(=O)(=O)c2ccccc2)cc1C
inactive: SN12C 25.2 µM | SF-268 25.9 µM | CCRF-CEM 24.9 µM | T47D 18.2 µM | SK-MEL-5 > 10 µM | SNB-19 31.8 µM | A498 > 10 µM | HL-60 26.2 µM | HOP-62 31.5 µM | SK-MEL-2 32.2 µM | MDA-MB-435 > 10 µM | CAKI-1 17.7 µM | Malme-3M 15 µM | BT-549 27.1 µM | A549 30.5 µM | IGROV-1 26.9 µM | TK-10 35.6 µM | SK-MEL-28 19.8 µM

Nc1ncnc2c1N=C(c1ccccc1)CC(c1ccccc1)N2 (stereo not given)
inactive: SN12C > 100 µM | SR > 100 µM | SF-268 > 100 µM | CCRF-CEM > 100 µM | T47D > 100 µM | SNB-19 > 100 µM | HOP-62 97.5 µM | SK-MEL-2 > 100 µM | MDA-MB-435 > 100 µM | CAKI-1 > 100 µM | Malme-3M > 100 µM | BT-549 > 100 µM | A549 > 100 µM | TK-10 > 100 µM | SK-MEL-28 > 100 µM

CCCCCCc1cc2cc(-c3cn4ccsc4n3)c(=O)oc2cc1O
inactive: SN12C > 100 µM | SR > 100 µM | SF-268 > 58.2 µM | CCRF-CEM > 68.5 µM | T47D > 100 µM | SK-MEL-5 > 30.9 µM | SNB-19 > 100 µM | A498 > 100 µM | HL-60 > 100 µM | HOP-62 64.9 µM | SK-MEL-2 > 100 µM | CAKI-1 > 71.1 µM | BT-549 > 100 µM | A549 > 100 µM | IGROV-1 > 100 µM | TK-10 > 95.3 µM | SK-MEL-28 > 25.4 µM

COCOc1cc(OC)ccc1C/C(=N/O)C(=O)OC
inactive: SN12C > 100 µM | SF-268 > 100 µM | CCRF-CEM > 100 µM | T47D > 100 µM | SK-MEL-5 > 100 µM | SNB-19 > 100 µM | HL-60 > 100 µM | HOP-62 > 100 µM | SK-MEL-2 > 100 µM | MDA-MB-435 > 100 µM | CAKI-1 > 100 µM | Malme-3M > 100 µM | BT-549 > 100 µM | A549 > 100 µM | IGROV-1 > 100 µM | TK-10 > 100 µM | SK-MEL-28 > 100 µM

CC(=O)c1sc2c(c1O)c(=O)n(-c1ccccc1)c(=S)n2-c1ccccc1
inactive: SN12C > 100 µM | SF-268 > 100 µM | CCRF-CEM > 10 µM | T47D > 100 µM | SK-MEL-5 > 100 µM | SNB-19 > 100 µM | HL-60 > 100 µM | SK-MEL-2 > 100 µM | MDA-MB-435 > 100 µM | Malme-3M > 100 µM | BT-549 95.3 µM | A549 > 100 µM | IGROV-1 > 100 µM | TK-10 > 100 µM | SK-MEL-28 > 100 µM

CC(C)(C)C1=NC(=S)SC2=NC(=O)C3(NN21)c1ccccc1-c1ccccc13
inactive: SN12C > 10 µM | SR 4.59 µM | SF-268 > 10 µM | CCRF-CEM 8.71 µM | T47D 2.04 µM | SK-MEL-5 3.44 µM | SNB-19 > 10 µM | HL-60 6.79 µM | HOP-62 > 10 µM | MDA-MB-435 > 10 µM | CAKI-1 > 10 µM | Malme-3M > 10 µM | BT-549 6.35 µM | A549 7.26 µM | IGROV-1 > 10 µM | TK-10 > 10 µM | SK-MEL-28 > 10 µM

C=C1[C@@H]2CCC3[C@]4(C)C(CC[C@@]5(C)C(=O)O[C@H](O)[C@@H]45)[C@H](O)[C@]3(C2)[C@H]1OC1OC(CO)C(O)C(O)C1O (stereo not given in full)
inactive: SN12C > 50 µM | SF-268 > 50 µM | T47D > 50 µM | SK-MEL-5 > 50 µM | SNB-19 > 50 µM | A498 > 50 µM | HL-60 > 50 µM | HOP-62 > 50 µM | SK-MEL-2 > 50 µM | Malme-3M > 50 µM | BT-549 > 50 µM | A549 > 50 µM | IGROV-1 > 50 µM | TK-10 > 50 µM | SK-MEL-28 > 50 µM

COC(=O)[C@@H]1O[C@]12C(CO[Si](C)(C)C(C)(C)C)OC(n1ccc(=O)[nH]c1=O)C2O[Si](C)(C)C(C)(C)C (stereo not given in full)
inactive: SN12C 30.6 µM | SR > 10 µM | SF-268 30.4 µM | CCRF-CEM > 100 µM | SK-MEL-5 19.6 µM | SNB-19 22.9 µM | A498 > 10 µM | HL-60 10.1 µM | HOP-62 24 µM | SK-MEL-2 17.4 µM | MDA-MB-435 23.6 µM | CAKI-1 19.7 µM | BT-549 17.5 µM | A549 32.7 µM | IGROV-1 17.7 µM | TK-10 27.1 µM | SK-MEL-28 25.5 µM

COc1ccc(C2SCC(=O)N2NC(=O)c2ccc(NC(C)=O)cc2)cc1 (stereo not given)
inactive: SN12C > 100 µM | SF-268 > 100 µM | T47D > 100 µM | SK-MEL-5 > 100 µM | SNB-19 > 100 µM | A498 > 100 µM | HOP-62 > 100 µM | SK-MEL-2 > 100 µM | MDA-MB-435 > 100 µM | BT-549 74.1 µM | A549 > 100 µM | IGROV-1 > 100 µM | TK-10 > 100 µM | SK-MEL-28 > 100 µM

O=S(=O)(c1ccccc1)n1c(C(O)c2ccccc2)cc2ccccc21 (stereo not given)
inactive: SF-268 16.3 µM | CCRF-CEM 9.46 µM | T47D 21.3 µM | SK-MEL-5 14.6 µM | SNB-19 13.7 µM | A498 10.2 µM | HL-60 11.4 µM | HOP-62 17.9 µM | SK-MEL-2 17.1 µM | MDA-MB-435 16.6 µM | CAKI-1 17.7 µM | Malme-3M 18.3 µM | BT-549 15.8 µM | A549 14.5 µM | IGROV-1 15.5 µM | TK-10 17.3 µM | SK-MEL-28 19.6 µM

CCC12CCCN3CCc4c(n(c5ccccc45)C(O)(C(=O)OC)C1)C32 (stereo not given)
inactive: SN12C > 100 µM | SF-268 > 100 µM | CCRF-CEM > 100 µM | T47D > 100 µM | SK-MEL-5 > 100 µM | SNB-19 > 100 µM | A498 > 100 µM | HL-60 > 100 µM | SK-MEL-2 > 100 µM | MDA-MB-435 > 100 µM | CAKI-1 > 100 µM | Malme-3M > 100 µM | BT-549 > 100 µM | A549 > 100 µM | IGROV-1 > 100 µM | TK-10 > 100 µM | SK-MEL-28 > 100 µM
